Reference: ChEMBL document CHEMBL3886160, “1,2,4-triazine-6-carboxamide derivative” (2015)

Biological target: Tyrosine-protein kinase SYK (Homo sapiens, UniProt P43405)
Assay: Syk Kinase Inhibition Assay: The in vitro inhibitory activity of the compound of the present invention against Syk kinase activity was assayed under the following conditions: the purified human Syk protein used in the test were purchased from Carna Biosciences, Inc. For the inhibitory activity assay on the compound, the compound of the present invention was first serially diluted with dimethyl …
Description: Syk Kinase Inhibition Assay: The in vitro inhibitory activity of the compound of the present invention against Syk kinase activity was assayed under the following conditions: the purified human Syk protein used in the test were purchased from Carna Biosciences, Inc. For the inhibitory activity assay on the compound, the compound of the present invention was first serially diluted with dimethyl sulfoxide (DMSO). […] The kinase reaction was stopped by the addition thereto of EDTA.

| SMILES | IC50 |
| --- | --- |
| Cc1cc(Nc2nc(N[C@@H]3CCOC[C@@H]3N)nnc2C(N)=O)cc2ccsc12 | 0.37 nM |
| NC(=O)c1nnc(N[C@@H]2CCOC[C@@H]2N)nc1Nc1csc2ccccc12 | 0.89 nM |
| NC(=O)c1nnc(N[C@@H]2CCCC[C@@H]2N)nc1Nc1nc(-c2ccccc2)cs1 | 0.38 nM |
